# Publication PMC3605653 (The Journal of Biological Chemistry, 2013)
# Tests used:
# [1] = biological target: ELIC (Erwinia chrysanthemi ligand-gated ion channel) (Dickeya chrysanthemi, UniProt P0C7B7, L239S/W223A); assay: cell-based; conditions: read-out: remaining EC20 current (%) at 200 μM
# [2] = biological target: ELIC (Erwinia chrysanthemi ligand-gated ion channel) (Dickeya chrysanthemi, UniProt P0C7B7, F273A/L239S); assay: cell-based; conditions: read-out: remaining EC20 current (%) at 200 μM
# [3] = biological target: T1, ELIC (Erwinia chrysanthemi ligand-gated ion channel) (Dickeya chrysanthemi, UniProt P0C7B7); assay: two-electrode voltage clamp, Xenopus oocytes; type: cell-based
# T1 sequence (P0C7B7 1-321): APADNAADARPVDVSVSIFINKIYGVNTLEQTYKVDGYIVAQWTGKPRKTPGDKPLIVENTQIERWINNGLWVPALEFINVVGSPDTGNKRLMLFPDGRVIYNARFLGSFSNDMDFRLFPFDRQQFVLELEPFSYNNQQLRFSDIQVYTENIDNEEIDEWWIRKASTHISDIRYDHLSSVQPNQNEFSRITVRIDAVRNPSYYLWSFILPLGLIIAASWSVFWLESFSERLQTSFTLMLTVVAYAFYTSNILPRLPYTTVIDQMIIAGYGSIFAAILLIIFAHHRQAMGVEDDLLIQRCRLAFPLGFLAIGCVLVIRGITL
# [4] = biological target: T1, ELIC (Erwinia chrysanthemi ligand-gated ion channel); assay: two-electrode voltage clamp, Xenopus oocytes; type: cell-based; conditions: agonist; pH 7.4, 18 °C, -60 mV; concentration used as EC20
SMILES,remaining activity at 200 µM [1] [%],remaining activity at 200 µM [2] [%],IC50 [3] [µM],EC20 [4] [mM]
BrC(Br)Br [bromoform],81 ± 6,78 ± 4,125 ± 10,–
NCCCC(=O)O [GABA],–,–,–,3
ClC(Cl)Cl [chloroform],–,–,162 ± 26,–
